Experimental data: patent publication US20250296959A1, “B7-H3 TARGETING PEPTIDES AND CONSTRUCTS THEREOF” (Mariana Oncology Inc., priority 2024, published 2025)
Starred links: 1 amine or outer side, 2 acyl side, 3 side chain; linkers in the order of their positions; H or OH if unused. Positions of bridges follow the written chain, without caps; N, C: chain ends. Non-standard residues stand in square brackets, D forms with d. Residues, ends and D or L forms follow the SMILES beside them. Groups on a side chain read outwards from the residue. *: point of attachment. X4 = O=C(O)CN1CCN(CC(=O)O)CCN([C@H](CCC(=O)*)C(=O)O)CCN(CC(=O)O)CC1; Ala(piperidin-4-yl) = O=C([C@H](CC1CCN([*:3])CC1)N[*:1])[*:2]; Phe(3R-OH) = O=C([C@@H](N[*:1])[C@H](O[*:3])c1ccccc1)[*:2]; DOTA = O=C(O)CN1CCN(CC(=O)O)CCN(CC(=O)*)CCN(CC(=O)O)CC1; Trp(4-Cl) = N[C@@H](Cc1c[nH]c2cccc(Cl)c12)C(=O)O; Trp(4-Me) = Cc1cccc2[nH]cc(C[C@H](N)C(=O)O)c12; Trp(5-F) = N[C@@H](Cc1c[nH]c2ccc(F)cc12)C(=O)O; Trp(5-Me) = Cc1ccc2[nH]cc(C[C@H](N)C(=O)O)c2c1; Trp(1-Me) = Cn1cc(C[C@H](N)C(=O)O)c2ccccc21; Ala(4-THP) = N[C@@H](CC1CCOCC1)C(=O)O; Phe(2-OH) = N[C@@H](Cc1ccccc1O)C(=O)O; Phe(2-F) = N[C@@H](Cc1ccccc1F)C(=O)O; Val(3-OH) = CC(C)(O)[C@H](N)C(=O)O; Tle = CC(C)(C)[C@H](N)C(=O)O; hLeu = CC(C)CC[C@H](N)C(=O)O; PEG2 = NCCOCCOCCC(=O)O

Target: T1, human 4lg B7-H3 (Homo sapiens, UniProt Q5ZPR3)
T1 sequence (Q5ZPR3 29-534): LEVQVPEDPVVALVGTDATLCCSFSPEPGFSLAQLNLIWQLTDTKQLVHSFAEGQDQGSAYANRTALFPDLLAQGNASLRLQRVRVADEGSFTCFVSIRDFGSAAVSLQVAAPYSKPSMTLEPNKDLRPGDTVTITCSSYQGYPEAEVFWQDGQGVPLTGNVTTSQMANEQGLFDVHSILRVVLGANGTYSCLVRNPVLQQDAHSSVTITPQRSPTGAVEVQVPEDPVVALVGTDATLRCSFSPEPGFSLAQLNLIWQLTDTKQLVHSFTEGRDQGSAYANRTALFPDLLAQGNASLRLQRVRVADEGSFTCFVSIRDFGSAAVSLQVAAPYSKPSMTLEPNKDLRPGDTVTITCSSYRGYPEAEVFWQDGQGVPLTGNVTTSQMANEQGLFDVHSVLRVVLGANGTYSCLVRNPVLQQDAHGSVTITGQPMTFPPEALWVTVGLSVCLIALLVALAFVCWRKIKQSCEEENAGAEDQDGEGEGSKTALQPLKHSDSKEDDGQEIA
Assay: Affinity determination by surface plasmon resonance (SPR) to 4Ig B7-H3
Settings: SPR KD—37° C., 4Ig B7-H3; 37° C. flow cell temperature

`CC(=O)N[C@@H](CCC(C)C)C(=O)N[C@@H](Cc1ccc(O)cc1)C(=O)N[C@H]1CSSC[C@@H](C(=O)N[C@@H](Cc2c[nH]c3ccc(F)cc23)C(=O)N[C@@H](Cc2ccccc2)C(=O)N[C@H](C(=O)N[C@H](CCC(=O)O)C(N)=O)C(C)(C)O)NC(=O)[C@H](Cc2ccc(O)cc2)NC(=O)[C@H](C(C)C)NC(=O)[C@H](CC(=O)O)NC(=O)[C@H](CC2CCN(C(=O)CC[C@H](C(=O)O)N3CCN(CC(=O)O)CCN(CC(=O)O)CCN(CC(=O)O)CC3)CC2)NC(=O)[C@H](CC2CCNCC2)NC(=O)CNC(=O)[C@H](C(C)(C)C)NC1=O` [compound 460, Ac-hLeu-Y-C-Tbg-G-PipAla-Pip(R-DOTAGA)Ala-D-V-Y-C-5FW-F-hydroxyVal-dGlu-CONH2] (Ac-[hLeu]YC[Tle]G[Ala(piperidin-4-yl)][Ala(piperidin-4-yl)](X4)DVYC[Trp(5-F)]F[Val(3-OH)][dE]-NH2; disulfide 3-11) and `CC(=O)N[C@@H](CCC(C)C)C(=O)N[C@@H](Cc1ccc(O)cc1)C(=O)N[C@H]1CSSC[C@@H](C(=O)N[C@@H](Cc2c[nH]c3ccc(F)cc23)C(=O)N[C@@H](Cc2ccccc2)C(=O)N[C@H](C(=O)N[C@H](CCC(=O)O)C(N)=O)C(C)(C)O)NC(=O)[C@H](Cc2ccc(O)cc2)NC(=O)[C@H](C(C)C)NC(=O)[C@H](CC(=O)O)NC(=O)[C@H](CC2CCOCC2)NC(=O)[C@H](CC2CCN(C(=O)CC[C@H](C(=O)O)N3CCN(CC(=O)O)CCN(CC(=O)O)CCN(CC(=O)O)CC3)CC2)NC(=O)CNC(=O)[C@H](C(C)(C)C)NC1=O` [compound 476, Ac-hLeu-Y-C-Tbg-G-Pip(R-DOTAGA)Ala-ThpA-D-V-Y-C-5FW-F-hydroxyVal-dGlu-CONH2] (Ac-[hLeu]YC[Tle]G[Ala(piperidin-4-yl)](X4)[Ala(4-THP)]DVYC[Trp(5-F)]F[Val(3-OH)][dE]-NH2; disulfide 3-11) cannot be ordered by Kd: < 1 nM for the first, < 1 nM for the second.

First: CC(=O)N[C@@H](CCC(C)C)C(=O)N[C@@H](Cc1ccc(O)cc1)C(=O)N[C@H]1CSSC[C@@H](C(=O)N[C@@H](Cc2cn(C)c3ccccc23)C(=O)N[C@@H](Cc2ccccc2)C(=O)N[C@H](C(=O)N[C@H](CCCCNC(=O)CN2CCN(CC(=O)O)CCN(CC(=O)O)CCN(CC(=O)O)CC2)C(=O)O)C(C)(C)O)NC(=O)[C@H](Cc2ccc(O)cc2)NC(=O)[C@H](C(C)C)NC(=O)[C@H](CC(=O)O)NC(=O)[C@H](CC2CCOCC2)NC(=O)[C@H](CC2CCNCC2)NC(=O)CNC(=O)[C@H](C(C)(C)C)NC1=O [compound 462, Ac-hLeu-Y-C-Tbg-G-PipAla-ThpA-D-V-Y-C-Trp(Me)-F-hydroxyVal-dLys(DOTA)-COOH] (Ac-[hLeu]YC[Tle]G[Ala(piperidin-4-yl)][Ala(4-THP)]DVYC[Trp(1-Me)]F[Val(3-OH)][dK](DOTA)-OH; disulfide 3-11)
Second: CC(=O)N[C@@H](CCC(C)C)C(=O)N[C@@H](Cc1ccc(O)cc1)C(=O)N[C@H]1CSSC[C@@H](C(=O)N[C@@H](Cc2c[nH]c3ccc(C)cc23)C(=O)N[C@@H](Cc2ccccc2)C(=O)N[C@H](C(=O)N[C@H](CCCCNC(=O)CN2CCN(CC(=O)O)CCN(CC(=O)O)CCN(CC(=O)O)CC2)C(=O)O)C(C)(C)O)NC(=O)[C@H](Cc2ccc(O)cc2)NC(=O)[C@H](C(C)C)NC(=O)[C@H](CC(=O)O)NC(=O)[C@H](CC2CCOCC2)NC(=O)[C@H](CC2CCNCC2)NC(=O)CNC(=O)[C@H](C(C)(C)C)NC1=O [compound 471, Ac-hLeu-Y-C-Tbg-G-PipAla-ThpA-D-V-Y-C-5MeW-F-hydroxyVal-dLys(DOTA)-COOH] (Ac-[hLeu]YC[Tle]G[Ala(piperidin-4-yl)][Ala(4-THP)]DVYC[Trp(5-Me)]F[Val(3-OH)][dK](DOTA)-OH; disulfide 3-11)
The Kd of the first is lower: < 1 nM for the first, 1 to 10 nM for the second.

First: CC(=O)N[C@@H](CCC(C)C)C(=O)N[C@@H](Cc1ccc(O)cc1)C(=O)N[C@H]1CSSC[C@@H](C(=O)N[C@@H](Cc2c[nH]c3ccc(F)cc23)C(=O)N[C@@H](Cc2ccccc2)C(=O)N[C@H](C(=O)N[C@H](CCCCNC(=O)CN2CCN(CC(=O)O)CCN(CC(=O)O)CCN(CC(=O)O)CC2)C(=O)O)C(C)(C)O)NC(=O)[C@H](Cc2ccccc2O)NC(=O)[C@H](C(C)C)NC(=O)[C@H](CC(=O)O)NC(=O)[C@H](CC2CCOCC2)NC(=O)[C@H](CC2CCNCC2)NC(=O)CNC(=O)[C@H](C(C)(C)C)NC1=O [compound 467, Ac-hLeu-Y-C-Tbg-G-PipAla-ThpA-D-V-20HPhe-C-5FW-F-hydroxyVal-dLys(DOTA)-COOH] (Ac-[hLeu]YC[Tle]G[Ala(piperidin-4-yl)][Ala(4-THP)]DV[Phe(2-OH)]C[Trp(5-F)]F[Val(3-OH)][dK](DOTA)-OH; disulfide 3-11)
Second: CC(=O)N[C@@H](CCC(C)C)C(=O)N[C@@H](Cc1ccc(O)cc1)C(=O)N[C@H]1CSSC[C@@H](C(=O)N[C@@H](Cc2c[nH]c3ccc(F)cc23)C(=O)N[C@@H](Cc2ccccc2F)C(=O)N[C@H](C(=O)N[C@H](CCCCNC(=O)CN2CCN(CC(=O)O)CCN(CC(=O)O)CCN(CC(=O)O)CC2)C(=O)O)C(C)(C)O)NC(=O)[C@H](Cc2ccc(O)cc2)NC(=O)[C@H](C(C)C)NC(=O)[C@H](CC(=O)O)NC(=O)[C@H](CC2CCOCC2)NC(=O)[C@H](CC2CCNCC2)NC(=O)CNC(=O)[C@H](C(C)(C)C)NC1=O [compound 470, Ac-hLeu-Y-C-Tbg-G-PipAla-ThpA-D-V-Y-C-5FW-2FPhe-hydroxyVal-dLys(DOTA)-COOH] (Ac-[hLeu]YC[Tle]G[Ala(piperidin-4-yl)][Ala(4-THP)]DVYC[Trp(5-F)][Phe(2-F)][Val(3-OH)][dK](DOTA)-OH; disulfide 3-11)
The Kd of the first is higher: 1 to 10 nM for the first, < 1 nM for the second.

First: CC(=O)N[C@@H](CCC(C)C)C(=O)N[C@@H](Cc1ccc(O)cc1)C(=O)N[C@H]1CSSC[C@@H](C(=O)N[C@@H](Cc2c[nH]c3ccc(F)cc23)C(=O)N[C@H](C(=O)N[C@H](C(=O)N[C@H](CCCCNC(=O)CN2CCN(CC(=O)O)CCN(CC(=O)O)CCN(CC(=O)O)CC2)C(=O)O)C(C)(C)O)[C@H](O)c2ccccc2)NC(=O)[C@H](Cc2ccc(O)cc2)NC(=O)[C@H](C(C)C)NC(=O)[C@H](CC(=O)O)NC(=O)[C@H](CC2CCOCC2)NC(=O)[C@H](CC2CCNCC2)NC(=O)CNC(=O)[C@H](C(C)(C)C)NC1=O [compound 469, Ac-hLeu-Y-C-Tbg-G-PipAla-ThpA-D-V-Y-C-5FW-[(2S, 3R)beta-OH-Phe]-hydroxyVal-dLys(DOTA)-COOH] (Ac-[hLeu]YC[Tle]G[Ala(piperidin-4-yl)][Ala(4-THP)]DVYC[Trp(5-F)][Phe(3R-OH)][Val(3-OH)][dK](DOTA)-OH; disulfide 3-11)
Second: CC(=O)N[C@@H](CCC(C)C)C(=O)N[C@@H](Cc1ccc(O)cc1)C(=O)N[C@H]1CSSC[C@@H](C(=O)N[C@@H](Cc2c[nH]c3cccc(Cl)c23)C(=O)N[C@@H](Cc2ccccc2)C(=O)N[C@H](C(=O)N[C@H](CCCCNC(=O)CN2CCN(CC(=O)O)CCN(CC(=O)O)CCN(CC(=O)O)CC2)C(=O)O)C(C)(C)O)NC(=O)[C@H](Cc2ccc(O)cc2)NC(=O)[C@H](C(C)C)NC(=O)[C@H](CC(=O)O)NC(=O)[C@H](CC2CCOCC2)NC(=O)[C@H](CC2CCNCC2)NC(=O)CNC(=O)[C@H](C(C)(C)C)NC1=O [compound 472, Ac-hLeu-Y-C-Tbg-G-PipAla-ThpA-D-V-Y-C-4ClW-F-hydroxyVal-dLys(DOTA)-COOH] (Ac-[hLeu]YC[Tle]G[Ala(piperidin-4-yl)][Ala(4-THP)]DVYC[Trp(4-Cl)]F[Val(3-OH)][dK](DOTA)-OH; disulfide 3-11)
The Kd of the first is lower: < 1 nM for the first, 1 to 10 nM for the second.

`CC(=O)N[C@@H](CCC(C)C)C(=O)N[C@@H](Cc1ccc(O)cc1)C(=O)N[C@H]1CSSC[C@@H](C(=O)N[C@@H](Cc2c[nH]c3cccc(C)c23)C(=O)N[C@@H](Cc2ccccc2)C(=O)N[C@H](C(=O)N[C@H](CCCCNC(=O)CN2CCN(CC(=O)O)CCN(CC(=O)O)CCN(CC(=O)O)CC2)C(=O)O)C(C)(C)O)NC(=O)[C@H](Cc2ccc(O)cc2)NC(=O)[C@H](C(C)C)NC(=O)[C@H](CC(=O)O)NC(=O)[C@H](CC2CCOCC2)NC(=O)[C@H](CC2CCNCC2)NC(=O)CNC(=O)[C@H](C(C)(C)C)NC1=O` [compound 473, Ac-hLeu-Y-C-Tbg-G-PipAla-ThpA-D-V-Y-C-4MeW-F-hydroxyVal-dLys(DOTA)-COOH] (Ac-[hLeu]YC[Tle]G[Ala(piperidin-4-yl)][Ala(4-THP)]DVYC[Trp(4-Me)]F[Val(3-OH)][dK](DOTA)-OH; disulfide 3-11) and `CC(=O)N[C@@H](CCC(C)C)C(=O)N[C@@H](Cc1ccc(O)cc1)C(=O)N[C@H]1CSSC[C@@H](C(=O)N[C@@H](Cc2c[nH]c3ccc(F)cc23)C(=O)N[C@@H](Cc2ccccc2)C(=O)N[C@H](C(=O)N[C@H](CCC(=O)O)C(N)=O)C(C)(C)O)NC(=O)[C@H](Cc2ccc(O)cc2)NC(=O)[C@H](C(C)C)NC(=O)[C@H](CC(=O)O)NC(=O)[C@H](CC2CCOCC2)NC(=O)[C@H](CC2CCN(C(=O)CCOCCOCCNC(=O)CN3CCN(CC(=O)O)CCN(CC(=O)O)CCN(CC(=O)O)CC3)CC2)NC(=O)CNC(=O)[C@H](C(C)(C)C)NC1=O` [compound 474, Ac-hLeu-Y-C-Tbg-G-Pip(PEG2-DOTA)Ala-ThpA-D-V-Y-C-5FW-F-hydroxyVal-dGlu-CONH2] (Ac-[hLeu]YC[Tle]G[Ala(piperidin-4-yl)]([PEG2-DOTA])[Ala(4-THP)]DVYC[Trp(5-F)]F[Val(3-OH)][dE]-NH2; disulfide 3-11) fall in the same range of Kd: 1 to 10 nM for the first, 1 to 10 nM for the second.
